Experimental data taken from article PMC3006138, “Fexinidazole – A New Oral Nitroimidazole Drug Candidate Entering Clinical Development for the Treatment of Sleeping Sickness” (PLoS Neglected Tropical Diseases, 2010).

Legend:
[1] = Cardiovascular safety by telemetry; settings: single oral dose
Method: Cardiovascular safety parameters were assessed in beagle dogs. Four adult (>1 year old) beagle dogs were given oral doses of fexinidazole at 100, 300 and 1000 mg/kg in an escalating dose design.
6.3. Treatment and Experimental Design
Experimental Day Treatmenta Dose (mg/kg) Volume Animal numbers (males) […]
a) Animals were treated following an escalating dose design with an adequate washout (at least 5 half lives of the longer lasting metabolite) between doses
Doses of 100, 300 and 1000 mg/kg of fexinidazole were selected based on the results of a […]
The oral route is that intende d for clinical administration.
6.3.1. Clinical Observation […]
dosing. Body weights are not reported here but they are archived with the study file.
6.3.2. Telemetry recordings
On the day of dosing, telemetry signals from each animal were collected continuously […]
The following parameters were calculated:
− Systolic blood pressure (SBP, mmHg)
− Diastolic blood pressure (DBP, mmHg)
− Average blood pressure (ABP, mmHg)
− Heart rate (HR, bpm, from the blood pressure signal)
− ECG intervals (RR, PR, QRS and QT, ms)
− Body temperature (BT, °C)
All the above-mentioned parameters were extracted automatically by the Notocord HEM acquisition software (Notocord, Croissy-sur-Seine, France) as the average value of 10-second recordings. […]

[2] = parameters: method as in ref 3 (report no. 0275-2007-R); settings: single 50 mg/kg po, ref 3 (report no. 0275-2007-R); cited from earlier work
Excretion balance = type: in vivo, rat; settings: for excreted percent of dose, faeces / excreted percent of dose, urine: 800 mg/kg po; for radioactivity eliminated: within 48 h
Method: Excretion balance in rats was carried out using a single oral dose of radiolabelled fexinidazole administered at the dose of 800 mg/kg (approximately 3.7 MBq/kg, 100 µCi/kg) by gastric gavage to three male albino Sprague Dawley rats. […]
This study was conducted according to Protocol N° 0162-2008 and to Amendment 1. A copy of the experimental protocol is included in Appendix 1; a copy of the amendment is included […]
FEXINIDAZOLE is a 5-nitroimidazole derivative biologically active against Trypanosoma parasites (T.b. rhodesiense and T.b. brucei) and useful in the treatment of the Human African Trypanosomiasis (HAT), known as sleeping sickness. FEXINIDAZOLE is a compound currently under development by the Sponsor.
The objective of this study was to obtain information on the elimination of radioactive drug-related material in urine and faeces following oral administration of [14C]-FEXINIDAZOLE (800 mg/kg) to male Sprague Dawley rats.
The albino Sprague Dawley rat was chosen as the species for this study since it was one of the species used in the toxicological evaluation of the test compound.
Only male animals were used as no gender differences were expected with respect to the aim of the study. The oral route of administration was chosen as this is the intended therapeutic route. The dose level was selected in agreement with the Study Sponsor and it is within the pharmacological relevant range. No overt toxicity was expected after single dosing at this […]
The study was conducted on 3 male animals after single oral administration of [14C]- FEXINIDAZOLE (800 mg/kg, approximately 3.7 MBq/kg, 100 µCi/kg).
Urine and faeces were collected up to 96 hours after administration. The radioactivity levels of drug-related material were determined in each collected sample by Liquid Scintillation […]
A summary of the experimental design is reported below:
Animal no. Date of Dosing Administered Dose Samples collected and (oral administration) analyzed
100 µCi/kg washes, carcass and skin […]
The test formulations were prepared by suspending unlabelled FEXINIDAZOLE and [14C]- FEXINIDAZOLE (see section 5.1) in 5% Tween 80 and 0.5% Methyl cellulose 400 cP (Methocel) in water, in order to obtain [14C]-FEXINIDAZOLE at the final target concentration of 80 mg/mL corresponding to a radioactivity concentration of about 370 […]
The test formulation was prepared by suspending an appropriate amount of unlabelled FEXINIDAZOLE in the dose vehicle. This formulation was homogenised using a Potter-Elvehjem homogenizer apparatus (teflon pestle of approx. 30 mm x 53 mm and glass tube of 40 mL), in order to obtain a fine suspension by up-and-down strokes, gently made by hand. The formulation was then collected and transferred from the homogeniser glass tube to the glass pot containing the [14C]-FEXINIDAZOLE.
During the preparation the test formulation was protected from light as far as possible.
The radioactivity concentration and homogeneity of the test formulation were determined, before administration, by liquid scintillation counting of triplicate weighed aliquots of test formulation. The radiolabelled test formulation was used immediately after formulation.
6.7.1. Administered Doses
The dose of [14C]-FEXINIDAZOLE was orally administered by gastric gavage at the target dose level of 800 mg/kg (radioactivity dose of about 3.7 MBq/kg, 100 µCi/kg) and at a target dose volume of about 10 mL/kg.
Individual doses were prepared for each animal by weighing the appropriate amount of the test formulation in an appropriate syringe for oral administration. The amount of dose administered to each animal was determined by weighing the filled syringe before the treatment and the empty syringe after dose administration. The actual dose received by each animal was calculated using the weight of the administered formulation, the radioactivity concentration and the final specific activity of the test material.
The actual doses received by each animal are documented in Table 1. […]

[3] = 0-96 h, listed as [14C]-FEXINIDAZOLE

Question: With CSc1ccc(OCc2ncc([N+](=O)[O-])n2C)cc1 [Fexinidazole, 1-methyl-2-((p-(methylthio)phenoxy)methyl)-5-nitroimidazole] as the compound, how does the “NOEL on body temperature” value [1] read?
Answer: 100 mg/kg

Question: And the “NOEL on cardiovascular parameters and ECG intervals” value [1]?
Answer: 1000 mg/kg

Question: And the “AUC0-tlast” value [2]?
Answer: 416 ng⋅h/mL

Question: What about the Cmax [2] of the same compound?
Answer: 154 ng/mL

Question: What about the “overall recovery of total radioactivity” value (Excretion balance; 0-96 h) of the same compound?
Answer: approximately 93%

Question: And the “percent of dose, cage washing” value (Excretion balance; 0-96 h)?
Answer: 2.73%

Question: What about the “radioactivity recovered in all the excreta (including cage washes)” value (Excretion balance; 0-96 h) of the same compound?
Answer: Approximately 91.4%

Question: And the “overall recovery of total radioactivity” value (Excretion balance; [3])?
Answer: 92.87%

Question: And the “excreted percent of dose, faeces” value (Excretion balance; 0-96 h)?
Answer: 59%

Question: And the “excreted percent of dose, urine” value (Excretion balance; 0-96 h)?
Answer: 30%

Question: What about the “excreted percent of dose, faeces” value (Excretion balance; [3]) of the same compound?
Answer: 58.77%

Question: What about the “excreted percent of dose, urine” value (Excretion balance; [3]) of the same compound?
Answer: 29.92%

Question: And the “dose recovered from the carcass (and skin)” value (Excretion balance; 96 h)?
Answer: About 1.4%

Question: And the “percent of dose, carcass” value (Excretion balance; 96 h)?
Answer: 1.01%

Question: What about the “percent of dose, skin” value (Excretion balance; 96 h) of the same compound?
Answer: 0.43%

Question: What about the radioactivity eliminated (Excretion balance) of the same compound?
Answer: 84%

Question: And the radioactivity eliminated (Excretion balance; listed as [14C]-FEXINIDAZOLE)?
Answer: about 84.3%
